Test results as given in US20260207656A1, “COMPOSITION FOR PREVENTING AND/OR TREATING METABOLIC DISORDERS AND METHOD OF ITS PREPARATION” (Pharmako Biotechnologies Pty Ltd, priority 2022, published 2026).

Experiment: In vivo study in rats fed a high-fat diet for 3 weeks (Example 2): body weight, blood glucose, liver weight, hepatic enzymes
Set-up: species or system Sprague-Dawley rats
Protocol: Sprague-Dawley rats (8-week-old; OzGene, formerly Animal Resources Centre, Perth) were fed a high-fat diet (22% fat/44% energy from fat, sourced from Specialty Feeds, Glen Forrest WA) where animals were provided access to food ad libitum for a period of 3 weeks. The rats were divided into groups and administered treatments as follows: (i) PBS (negative control), (ii) INU-BEN (1 g/kg), (iii) orlistat (tetrahydrolipstatin) (positive control; 75 mg/kg; Dayang Chem (Hangzhou) Co., Ltd) and (iv) a combination group of INU-BEN (1 g/kg) and orlistat (75 mg/kg). The rats were treated daily between […]. The experimental studies involved monitoring body weight daily, prior to dosing. Thereafter, blood samples were collected (by tail vein) prior to the rats being euthanized and were analysed for blood glucose levels and liver enzyme concentrations. The rats were dissected and analysed for fat pad weight and liver weight. The rat microbiomes were also analysed at the completion of the 3-week treatment period via faecal samples.

In the case of `CCCCCCCCCCC[C@@H](C[C@@H]1OC(=O)[C@H]1CCCCCC)OC(=O)[C@H](CC(C)C)NC=O` [orlistat, tetrahydrolipstatin], the “plasma hepatic enzyme concentrations (LDH, ALT, AST)” value (after 3 weeks of treatment, FIGS. 7A-7C) was “does not exert a positive impact on plasma hepatic enzyme concentrations” and the “body weight gain (change in rodent body weight normalized to original body weight)” value (daily treatment for 3 weeks, INU-BEN 1 g/kg, orlistat 75 mg/kg, vs PBS negative control, FIG. 3/4) was “performed about the same”.
